Laboratory results as given in article PMC9415509, “Pro-Apoptotic Antitumoral Effect of Novel Acridine-Core Naphthoquinone Compounds against Oral Squamous Cell Carcinoma” (Molecules, 2022).

Test: Hemolysis assay
Format: cell-based
Conditions: human, human erythrocytes, relative to triton x-100 = 100% lysis
Experimental: Hemolysis assay. To determine the surfactant power of substances in biological membranes, a hemolysis assay was performed using human blood approved by the Research Ethics Committee of Universidade Federal Fluminense (CAAE: 43134721.4.0000.5626). Erythrocytes were collected for centrifugation at 1500 rpm for 15 min, washed with PBS (phosphate-buffered saline) supplemented with 10 mM glucose, and counted in an automatic cell counter (Thermo Fisher, Waltham, MA, USA). Erythrocytes were then plated in 96-well plates at a concentration of 4 × 10^8 cells/well in triplicates, and 10 µL of compounds was added at a final concentration of 300 µM in PBS with glucose (final volume 100 µL). In total, 10 µL of PBS was used as a negative control and 10 µL of PBS with 0.1% Triton ×100 as a positive control. Data reading was performed with EPOCH (BioTek Instruments, Winooski, VT, USA) at an absorbance of 540 nm, and the statistical data were generated using the […] Prism 5.0 program (Intuitive Software for Science, San Diego, CA, USA).

Compound `CC1(C)CC(=O)C2=C(C1)NC1=C(C(=O)c3ccccc3C1=O)C2c1ccc(Cl)cc1Cl` (stereo not shown) [4e, 12-(2,4-dichlorophenyl)-3,3-dimethyl-3,4-dihydrobenzo[b]acridine-1,6,11(2H,5H,12H)-trione] has a hemolysis at 300 µM of under 3%.
